# Reference: publication PMC4774911, “Biochemical Screening of Five Protein Kinases from Plasmodium falciparum against 14,000 Cell-Active Compounds” (PLoS ONE, 2016)
# Values joined by “and” are separate entries in the source; they are usually repeats but may differ in a detail not shown here. Equal entries are not always repeated.
# Tests used:
# Assay in all cases: biochemical
# Design in all cases: endogenous in cells; host or cells: K562 cell extract; species or system K562 (extract); replicate k of n = 2 (each experiment ID is one independent experiment; two experiment IDs per compound)
# Details in all cases: read-out: KDapp
# PAK4 = PAK4 (Homo sapiens, UniProt O96013)
# PAK4, sequence (O96013 whole entry): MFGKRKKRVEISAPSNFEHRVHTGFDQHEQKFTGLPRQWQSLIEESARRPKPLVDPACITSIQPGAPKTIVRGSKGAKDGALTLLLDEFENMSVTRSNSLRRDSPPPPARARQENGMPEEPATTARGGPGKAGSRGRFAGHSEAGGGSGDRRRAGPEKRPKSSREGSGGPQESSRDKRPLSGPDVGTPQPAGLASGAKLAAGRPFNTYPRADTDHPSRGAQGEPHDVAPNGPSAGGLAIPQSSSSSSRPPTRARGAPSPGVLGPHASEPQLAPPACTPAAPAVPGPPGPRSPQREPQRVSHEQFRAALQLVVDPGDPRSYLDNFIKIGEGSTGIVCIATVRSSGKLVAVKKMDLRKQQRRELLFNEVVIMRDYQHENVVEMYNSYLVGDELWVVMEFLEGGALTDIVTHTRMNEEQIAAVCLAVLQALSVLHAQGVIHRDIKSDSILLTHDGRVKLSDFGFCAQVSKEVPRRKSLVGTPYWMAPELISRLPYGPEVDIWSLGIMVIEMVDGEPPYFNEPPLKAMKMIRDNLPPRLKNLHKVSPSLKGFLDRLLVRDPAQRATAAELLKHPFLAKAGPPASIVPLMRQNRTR
# CSNK1A1 = CSNK1A1 (Homo sapiens, UniProt P48729)
# CSNK1A1, sequence (P48729 whole entry): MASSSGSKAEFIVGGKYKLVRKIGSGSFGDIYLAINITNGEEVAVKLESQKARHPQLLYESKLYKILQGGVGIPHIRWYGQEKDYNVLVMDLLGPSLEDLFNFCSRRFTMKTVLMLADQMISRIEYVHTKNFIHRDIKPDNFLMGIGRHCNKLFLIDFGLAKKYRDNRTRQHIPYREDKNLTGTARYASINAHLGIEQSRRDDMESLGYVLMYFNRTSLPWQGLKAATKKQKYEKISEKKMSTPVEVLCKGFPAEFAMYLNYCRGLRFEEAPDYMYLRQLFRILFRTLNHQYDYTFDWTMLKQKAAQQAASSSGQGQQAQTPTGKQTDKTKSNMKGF
# CDC42BPG = CDC42BPG (Homo sapiens, UniProt Q6DT37)
# CDC42BPG, sequence (Q6DT37 whole entry): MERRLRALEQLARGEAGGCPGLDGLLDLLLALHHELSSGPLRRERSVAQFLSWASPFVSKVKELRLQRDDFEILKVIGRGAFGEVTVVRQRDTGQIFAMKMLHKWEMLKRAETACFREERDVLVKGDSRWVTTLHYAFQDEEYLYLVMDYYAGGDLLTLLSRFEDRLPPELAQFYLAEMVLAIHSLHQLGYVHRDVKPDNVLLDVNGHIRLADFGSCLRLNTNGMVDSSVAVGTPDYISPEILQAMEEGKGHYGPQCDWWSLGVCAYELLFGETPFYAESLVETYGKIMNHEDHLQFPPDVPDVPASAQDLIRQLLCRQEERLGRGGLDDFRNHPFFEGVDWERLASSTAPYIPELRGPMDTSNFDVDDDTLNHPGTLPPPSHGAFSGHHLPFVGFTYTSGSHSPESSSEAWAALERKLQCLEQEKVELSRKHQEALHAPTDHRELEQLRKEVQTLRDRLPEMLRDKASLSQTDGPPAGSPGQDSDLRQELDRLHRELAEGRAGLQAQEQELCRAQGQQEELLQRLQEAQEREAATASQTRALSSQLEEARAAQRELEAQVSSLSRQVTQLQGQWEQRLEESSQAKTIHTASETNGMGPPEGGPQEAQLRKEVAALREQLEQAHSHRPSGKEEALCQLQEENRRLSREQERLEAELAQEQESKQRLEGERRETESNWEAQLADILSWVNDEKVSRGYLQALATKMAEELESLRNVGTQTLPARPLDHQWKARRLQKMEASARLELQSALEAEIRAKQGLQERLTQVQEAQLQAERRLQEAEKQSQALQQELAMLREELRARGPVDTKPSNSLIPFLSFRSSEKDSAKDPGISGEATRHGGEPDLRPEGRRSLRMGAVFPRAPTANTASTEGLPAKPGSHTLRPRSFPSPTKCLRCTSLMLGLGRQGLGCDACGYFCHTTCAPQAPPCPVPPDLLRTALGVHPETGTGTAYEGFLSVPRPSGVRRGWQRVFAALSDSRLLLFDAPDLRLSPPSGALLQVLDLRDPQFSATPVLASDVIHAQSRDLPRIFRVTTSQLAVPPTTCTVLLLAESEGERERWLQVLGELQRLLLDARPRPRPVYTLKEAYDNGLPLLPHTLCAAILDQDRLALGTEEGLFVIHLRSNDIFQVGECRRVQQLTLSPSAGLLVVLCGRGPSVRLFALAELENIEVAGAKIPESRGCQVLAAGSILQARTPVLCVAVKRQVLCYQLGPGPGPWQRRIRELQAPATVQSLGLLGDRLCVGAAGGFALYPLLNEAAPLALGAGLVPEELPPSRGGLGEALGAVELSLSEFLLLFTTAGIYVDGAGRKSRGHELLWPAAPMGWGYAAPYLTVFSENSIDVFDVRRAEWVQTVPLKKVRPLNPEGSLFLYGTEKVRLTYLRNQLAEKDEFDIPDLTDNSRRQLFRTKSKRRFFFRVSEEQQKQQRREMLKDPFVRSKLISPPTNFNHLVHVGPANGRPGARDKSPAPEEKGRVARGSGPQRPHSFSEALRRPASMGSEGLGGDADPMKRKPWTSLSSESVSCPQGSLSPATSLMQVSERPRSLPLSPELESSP
# PRKD2 = biological target: T1, PRKD2 (Homo sapiens, UniProt Q9BZL6)
# T1 sequence (Q9BZL6 1-878): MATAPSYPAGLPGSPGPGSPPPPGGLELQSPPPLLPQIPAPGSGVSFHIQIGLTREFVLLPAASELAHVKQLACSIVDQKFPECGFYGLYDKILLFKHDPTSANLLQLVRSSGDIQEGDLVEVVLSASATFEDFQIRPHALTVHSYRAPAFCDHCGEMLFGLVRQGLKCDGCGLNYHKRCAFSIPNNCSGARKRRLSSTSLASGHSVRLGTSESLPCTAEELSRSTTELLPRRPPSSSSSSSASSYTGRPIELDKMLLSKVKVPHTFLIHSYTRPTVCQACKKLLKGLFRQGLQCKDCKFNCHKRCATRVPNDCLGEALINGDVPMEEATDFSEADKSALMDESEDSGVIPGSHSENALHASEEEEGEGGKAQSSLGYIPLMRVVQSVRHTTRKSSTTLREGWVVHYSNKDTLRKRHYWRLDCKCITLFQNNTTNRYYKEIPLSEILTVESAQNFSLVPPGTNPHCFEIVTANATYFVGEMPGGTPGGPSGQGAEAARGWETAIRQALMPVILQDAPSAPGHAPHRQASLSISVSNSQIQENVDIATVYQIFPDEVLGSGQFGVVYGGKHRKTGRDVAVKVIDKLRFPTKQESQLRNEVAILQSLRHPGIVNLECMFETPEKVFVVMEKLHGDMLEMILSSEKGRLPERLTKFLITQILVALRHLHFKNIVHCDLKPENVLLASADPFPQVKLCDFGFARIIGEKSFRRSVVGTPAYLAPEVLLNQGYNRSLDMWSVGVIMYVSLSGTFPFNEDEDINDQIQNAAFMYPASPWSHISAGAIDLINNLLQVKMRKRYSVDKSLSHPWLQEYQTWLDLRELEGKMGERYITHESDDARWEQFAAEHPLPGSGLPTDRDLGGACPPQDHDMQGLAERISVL
# MERTK = biological target: T2, MERTK (Homo sapiens, UniProt Q12866)
# T2 sequence (Q12866 1-999): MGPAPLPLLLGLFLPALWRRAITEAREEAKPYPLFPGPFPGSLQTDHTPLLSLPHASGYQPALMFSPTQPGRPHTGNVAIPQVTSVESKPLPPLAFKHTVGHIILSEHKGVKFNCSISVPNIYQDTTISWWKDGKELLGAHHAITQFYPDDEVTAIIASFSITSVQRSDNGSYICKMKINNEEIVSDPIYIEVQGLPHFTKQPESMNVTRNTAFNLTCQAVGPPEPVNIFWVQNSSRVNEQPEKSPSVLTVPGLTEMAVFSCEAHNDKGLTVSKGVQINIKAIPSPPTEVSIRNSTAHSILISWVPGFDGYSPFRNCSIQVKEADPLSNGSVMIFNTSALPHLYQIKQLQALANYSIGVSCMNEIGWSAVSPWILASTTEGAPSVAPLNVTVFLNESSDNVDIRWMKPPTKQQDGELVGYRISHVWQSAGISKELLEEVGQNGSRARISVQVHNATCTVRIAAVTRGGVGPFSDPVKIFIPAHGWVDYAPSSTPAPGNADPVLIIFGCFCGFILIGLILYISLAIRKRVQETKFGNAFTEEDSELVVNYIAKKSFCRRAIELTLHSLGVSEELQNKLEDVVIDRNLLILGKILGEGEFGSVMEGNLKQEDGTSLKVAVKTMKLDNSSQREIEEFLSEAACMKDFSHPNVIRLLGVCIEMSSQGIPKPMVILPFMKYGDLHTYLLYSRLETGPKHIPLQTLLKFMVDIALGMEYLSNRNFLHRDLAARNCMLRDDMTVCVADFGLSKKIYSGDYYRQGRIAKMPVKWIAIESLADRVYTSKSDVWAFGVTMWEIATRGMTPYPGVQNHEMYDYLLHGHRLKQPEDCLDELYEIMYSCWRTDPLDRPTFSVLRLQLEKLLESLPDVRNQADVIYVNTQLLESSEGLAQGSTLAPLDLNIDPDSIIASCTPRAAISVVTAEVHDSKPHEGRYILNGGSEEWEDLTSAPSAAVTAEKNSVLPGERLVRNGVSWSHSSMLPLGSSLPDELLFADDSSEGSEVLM
# STK10 = STK10 (Homo sapiens, UniProt O94804)
# GSK3B = GSK3B (Homo sapiens, UniProt P49841)
# GSK3B, sequence (P49841 whole entry): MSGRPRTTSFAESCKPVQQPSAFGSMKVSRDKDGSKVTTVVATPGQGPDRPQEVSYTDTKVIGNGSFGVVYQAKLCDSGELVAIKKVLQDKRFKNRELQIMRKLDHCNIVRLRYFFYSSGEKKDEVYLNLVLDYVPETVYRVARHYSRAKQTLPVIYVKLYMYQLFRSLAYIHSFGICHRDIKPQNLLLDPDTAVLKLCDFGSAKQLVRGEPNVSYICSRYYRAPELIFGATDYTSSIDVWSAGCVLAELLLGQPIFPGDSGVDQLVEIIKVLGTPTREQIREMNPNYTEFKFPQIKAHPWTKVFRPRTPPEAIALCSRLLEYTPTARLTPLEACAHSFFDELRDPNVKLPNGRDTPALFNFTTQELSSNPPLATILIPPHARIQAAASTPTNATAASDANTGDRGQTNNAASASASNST
# CIT = CIT (Homo sapiens, UniProt O14578)
# CIT, sequence (O14578 whole entry): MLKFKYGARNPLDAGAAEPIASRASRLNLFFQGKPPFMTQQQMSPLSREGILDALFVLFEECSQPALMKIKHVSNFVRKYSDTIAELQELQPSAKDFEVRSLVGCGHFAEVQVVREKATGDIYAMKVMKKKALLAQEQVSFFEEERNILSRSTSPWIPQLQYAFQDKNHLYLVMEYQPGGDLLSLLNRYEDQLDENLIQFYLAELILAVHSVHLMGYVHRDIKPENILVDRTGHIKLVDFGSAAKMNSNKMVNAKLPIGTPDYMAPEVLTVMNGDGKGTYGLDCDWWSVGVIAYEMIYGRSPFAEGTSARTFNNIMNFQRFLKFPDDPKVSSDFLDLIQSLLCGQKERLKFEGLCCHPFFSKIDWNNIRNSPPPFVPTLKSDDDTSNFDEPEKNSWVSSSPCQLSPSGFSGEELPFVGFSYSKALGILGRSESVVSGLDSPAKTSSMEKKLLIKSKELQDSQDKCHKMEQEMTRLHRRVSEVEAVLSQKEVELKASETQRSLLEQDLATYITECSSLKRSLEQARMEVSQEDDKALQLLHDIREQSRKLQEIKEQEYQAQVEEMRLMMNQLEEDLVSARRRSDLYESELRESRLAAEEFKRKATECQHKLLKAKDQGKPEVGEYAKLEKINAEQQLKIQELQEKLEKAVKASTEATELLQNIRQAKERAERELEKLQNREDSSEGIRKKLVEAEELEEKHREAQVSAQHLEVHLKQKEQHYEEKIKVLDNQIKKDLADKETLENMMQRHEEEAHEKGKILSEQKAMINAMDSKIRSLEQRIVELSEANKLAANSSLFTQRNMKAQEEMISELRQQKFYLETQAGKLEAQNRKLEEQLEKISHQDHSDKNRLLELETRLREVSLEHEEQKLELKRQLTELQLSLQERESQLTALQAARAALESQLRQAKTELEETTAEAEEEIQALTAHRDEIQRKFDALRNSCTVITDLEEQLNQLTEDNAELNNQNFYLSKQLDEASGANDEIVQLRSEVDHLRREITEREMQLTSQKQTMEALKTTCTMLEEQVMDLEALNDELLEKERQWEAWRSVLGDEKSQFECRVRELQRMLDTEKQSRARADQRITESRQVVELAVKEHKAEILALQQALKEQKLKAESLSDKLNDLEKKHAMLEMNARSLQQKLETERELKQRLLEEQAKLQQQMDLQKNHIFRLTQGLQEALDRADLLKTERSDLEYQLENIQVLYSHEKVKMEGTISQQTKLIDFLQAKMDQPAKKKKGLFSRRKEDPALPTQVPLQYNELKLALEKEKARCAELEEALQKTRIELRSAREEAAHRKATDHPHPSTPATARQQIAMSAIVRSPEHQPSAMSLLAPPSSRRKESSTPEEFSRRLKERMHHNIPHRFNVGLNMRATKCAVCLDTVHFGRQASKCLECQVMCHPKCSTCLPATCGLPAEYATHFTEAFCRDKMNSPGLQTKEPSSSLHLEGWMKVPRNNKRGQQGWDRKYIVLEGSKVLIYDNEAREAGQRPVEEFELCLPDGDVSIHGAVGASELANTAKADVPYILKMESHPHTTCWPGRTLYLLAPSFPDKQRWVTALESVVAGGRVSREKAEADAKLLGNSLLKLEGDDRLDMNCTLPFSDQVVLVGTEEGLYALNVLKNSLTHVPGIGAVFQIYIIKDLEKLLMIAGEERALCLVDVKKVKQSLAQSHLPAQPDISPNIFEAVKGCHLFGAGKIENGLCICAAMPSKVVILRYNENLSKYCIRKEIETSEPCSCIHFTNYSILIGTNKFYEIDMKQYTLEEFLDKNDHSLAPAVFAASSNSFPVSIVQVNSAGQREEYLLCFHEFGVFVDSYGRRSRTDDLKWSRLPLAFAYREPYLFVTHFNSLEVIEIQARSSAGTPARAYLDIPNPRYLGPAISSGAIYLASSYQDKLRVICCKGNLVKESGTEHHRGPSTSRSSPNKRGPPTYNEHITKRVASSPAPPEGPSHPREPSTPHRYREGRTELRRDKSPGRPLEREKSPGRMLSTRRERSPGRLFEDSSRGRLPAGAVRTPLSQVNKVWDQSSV
Structure (SMILES),Kd (PAK4),Kd (CSNK1A1),Kd (CDC42BPG) [µM],Kd (PRKD2),Kd (MERTK) [µM],Kd (STK10),Kd (GSK3B),Kd (CIT)
CN1CCN(c2ccc(Nc3ncc(C#N)c(Nc4ccccc4C(N)=O)n3)cc2)CC1.Cl [TCMDC-134116],0.205 µM and 0.227 µM,0.742 µM and 1.08 µM,0.848,0.165 µM and 0.16 µM,0.325,0.0256 µM and 0.0496 µM,0.857 µM and 0.535 µM,4.86 µM and 4.95 µM
Cl.NCC1(c2nc(-c3ccc(Cl)c(O)c3)c(-c3ccncc3)[nH]2)CCCCC1 [TCMDC-141154],4.91 µM,0.224 µM and 0.255 µM,6.79,2.52 µM and 2.08 µM,4.8,0.0304 µM,2.75 µM,0.137 µM and 0.239 µM
CN(C)CC(O)COc1ccc(Nc2ncc([N+](=O)[O-])c(Nc3ccccc3O)n2)cc1.O=C(O)C(F)(F)F (stereo not drawn) [TCMDC-141399],4.85 µM and 3.67 µM,7.65 µM,8.14,0.921 µM,0.567,3.36 µM,3 µM and 3.93 µM,3.75 µM
